Data taken from PMC9860641, “Synthesis, In Vitro α-Glucosidase Inhibitory Activity and Molecular Docking Study of New Benzotriazole-Based Bis-Schiff Base Derivatives” (Pharmaceuticals, 2022).

Experiments:
[1] = molecular target: α-glucosidase enzyme (Saccharomyces cerevisiae, UniProt P53341); type: biochemical
Procedure: To find out the α-glucosidase inhibition, kinetic studies were carried out using different concentrations of the inhibitors (0.0624, 0.3, 0.125, 0.4 mM) and different concentrations of substrate inhibitor (p-nitrophenol R-D maltoside NMP). Samples of 0.1, 0.2, 0.4, 0.8, and 1.0 mM (0.2 mg/mL) concentration were prepared in de-ionized water with the enzyme. PIPES buffer was used to adjust the pH of the solution. This solution was incubated for 30 min at 25 °C and the absorbance was recorded on an ELISA reader in 96-well plates. Kinetic parameters like Vmax, AICs, Km, and R2 were calculated using sigma plot enzyme kinetic software.

α-glucosidase enzyme, sequence (P53341 whole entry): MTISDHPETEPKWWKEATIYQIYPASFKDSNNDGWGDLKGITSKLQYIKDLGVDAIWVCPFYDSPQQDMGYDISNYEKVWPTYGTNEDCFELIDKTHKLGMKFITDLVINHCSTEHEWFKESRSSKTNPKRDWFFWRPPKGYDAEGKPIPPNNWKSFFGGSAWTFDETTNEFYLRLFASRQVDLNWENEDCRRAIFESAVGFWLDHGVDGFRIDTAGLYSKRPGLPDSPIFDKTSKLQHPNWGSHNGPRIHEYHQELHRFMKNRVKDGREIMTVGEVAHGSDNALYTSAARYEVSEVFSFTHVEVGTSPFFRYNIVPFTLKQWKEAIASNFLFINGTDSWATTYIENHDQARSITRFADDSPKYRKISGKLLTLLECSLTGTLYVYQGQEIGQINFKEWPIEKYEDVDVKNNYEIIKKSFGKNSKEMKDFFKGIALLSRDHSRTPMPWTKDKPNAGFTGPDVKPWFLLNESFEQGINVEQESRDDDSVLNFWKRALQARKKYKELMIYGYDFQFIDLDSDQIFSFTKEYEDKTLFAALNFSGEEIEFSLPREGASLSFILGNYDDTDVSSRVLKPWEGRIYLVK

| SMILES | melting point [°C] | other results |
| --- | --- | --- |
| COc1cccc(/C(Cn2nnc3ccccc32)=N\N=C\c2cccc([N+](=O)[O-])c2)c1 [Compound 2, 1-((E)-2-(3-methoxyphenyl)-2-(((E)-3-nitrobenzylidene)hydrazono)ethyl)-1H-benzo[d] [1,2, 3]triazole] | 192 to 193 | fold lower potency than compound (12) ([1]; comparator compound 12): two-fold |
| Brc1ccc(/C(Cn2nnc3ccccc32)=N\N=C\c2ccc3ccccc3c2)cc1 [Compound 7, 1-((E)-2-(4-bromophenyl)-2-(((E)-naphthalen-2-ylmethylene)hydrazono)ethyl)-1H-benzo[d] [1,2, 3]triazole] | 196 to 197 | potency against α-glucosidase compared with standard acarbose (in words) [1]: less potent than standard acarbose |
| O=[N+]([O-])c1ccc(/C=N/N=C(/Cn2nnc3ccccc32)c2ccc([N+](=O)[O-])cc2)cc1 [Compound 12, 1-((E)-2-(((E)-4-nitrobenzylidene)hydrazono)-2-(4-nitrophenyl)ethyl)-1H-benzo[d] [1,2, 3]triazole] | 191 to 192 | inhibition profile relative to scaffold (11) ([1]; comparator scaffold 11): half |
| COc1cccc(/C(Cn2nnc3ccccc32)=N\N=C\c2cc(Cl)cc(Cl)c2O)c1 [Compound 1, 2-((E)-(((E)-2-(1H-benzo[d][1,2, 3]triazol-1-yl)-1-(3-methoxyphenyl)ethylidene) hydrazono)methyl)-4,6-dichlorophenol] | 195 to 196 | fold lower potency than compound (9) ([1]; comparator compound 9): four-fold |
| O=[N+]([O-])c1ccc(/C(Cn2nnc3ccccc32)=N\N=C\c2ccc(O)cc2)cc1 [Compound 20, 4-((E)-(((E)-2-(1H-benzo[d][1,2, 3]triazol-1-yl)-1-(4-nitrophenyl)ethylidene) hydrazono)methyl)phenol] | 190 to 191 | – |
| O=[N+]([O-])c1cccc(/C=N/N=C(/Cn2nnc3ccccc32)c2ccc(Cl)cc2Cl)c1 [Compound 14, 1-((E)-2-(2,4-dichlorophenyl)-2-(((E)-3-nitrobenzylidene)hydrazono)ethyl)-1H-benzo[d] [1,2, 3]triazole] | 194 to 195 | – |
| O=[N+]([O-])c1ccc(/C=N/N=C(/Cn2nnc3ccccc32)c2ccc(Cl)cc2Cl)cc1 [Compound 15, 1-((E)-2-(2,4-dichlorophenyl)-2-(((E)-4-nitrobenzylidene)hydrazono)ethyl)-1H-benzo[d] [1,2, 3]triazole] | 194 to 195 | – |
| Oc1c(Cl)cc(Cl)cc1/C=N/N=C(/Cn1nnc2ccccc21)c1ccc(Cl)cc1Cl [Compound 13, 2-((E)-(((E)-2-(1H-benzo[d][1,2, 3]triazol-1-yl)-1-(2,4-dichlorophenyl)ethylidene) hydrazono)methyl)-4,6-dichlorophenol] | 199 to 200 | fold enhancement of α-glucosidase activity relative to compound (1) ([1]; comparator compound 1): three-fold |
| O=[N+]([O-])c1ccc(/C=N/N=C(/Cn2nnc3ccccc32)c2ccc(Br)cc2)cc1 [Compound 6, 1-((E)-2-(4-bromophenyl)-2-(((E)-4-nitrobenzylidene)hydrazono)ethyl)-1H-benzo[d] [1,2, 3]triazole] | 196 to 197 | potency relative to compound (3) ([1]; comparator compound 3): half |
| Brc1ccc(/C(Cn2nnc3ccccc32)=N\N=C\c2c3ccccc3cc3ccccc23)cc1 [Compound 4, 1-((E)-2-(((E)-anthracen-9-ylmethylene)hydrazono)-2-(4-bromophenyl)ethyl)-1H-benzo[d] [1,2, 3]triazole] | 201 to 202 | potency against α-glucosidase compared with standard acarbose (in words) [1]: less potent than standard acarbose |
| O=[N+]([O-])c1cccc(/C=N/N=C(/Cn2nnc3ccccc32)c2ccc(Br)cc2)c1 [Compound 3, 1-((E)-2-(4-bromophenyl)-2-(((E)-3-nitrobenzylidene)hydrazono)ethyl)-1H-benzo[d] [1,2, 3]triazole] | 196 to 197 | – |
| Clc1ccc(/C=N/N=C(/Cn2nnc3ccccc32)c2ccc(Br)cc2)cc1Cl [Compound 17, 1-((E)-2-(4-bromophenyl)-2-(((E)-3,4-dichlorobenzylidene)hydrazono)ethyl)-1H-benzo[d] [1,2, 3]triazole] | 198 to 199 | potency against α-glucosidase compared with standard acarbose (in words) [1]: less potent than standard acarbose |
| O=[N+]([O-])c1cccc(/C(Cn2nnc3ccccc32)=N\N=C\c2cc(Cl)cc(Cl)c2O)c1 [Compound 9, 2-((E)-(((E)-2-(1H-benzo[d][1,2, 3]triazol-1-yl)-1-(3-nitrophenyl)ethylidene) hydrazono)methyl)-4,6-dichlorophenol] | 197 to 198 | potency relative to standard acarbose (fold greater) ([1]; compared to standard acarbose): nine-fold |
| Oc1c(Cl)cc(Cl)cc1/C=N/N=C(/Cn1nnc2ccccc21)c1ccc(Br)cc1 [Compound 5, 2-((E)-(((E)-2-(1H-benzo[d][1,2, 3]triazol-1-yl)-1-(4-bromophenyl)ethylidene) hydrazono)methyl)-4,6-dichlorophenol] | 196 to 197 | fold lowering of enzymatic activity relative to scaffold (10) ([1]; comparator scaffold 10): four-fold |
| O=[N+]([O-])c1ccc(/C(Cn2nnc3ccccc32)=N\N=C\c2cccc([N+](=O)[O-])c2)cc1 [Compound 11, 1-((E)-2-(((E)-3-nitrobenzylidene)hydrazono)-2-(4-nitrophenyl)ethyl)-1H-benzo[d] [1,2, 3]triazole] | 191 to 192 | – |
| O=[N+]([O-])c1ccc(/C(Cn2nnc3ccccc32)=N\N=C\c2cc(Cl)cc(Cl)c2O)cc1 [Compound 10, 2-((E)-(((E)-2-(1H-benzo[d][1,2, 3]triazol-1-yl)-1-(4-nitrophenyl)ethylidene) hydrazono)methyl)-4,6-dichlorophenol] | 197 to 198 | – |
| O=Cc1ccc(/C=N/N=C(/Cn2nnc3ccccc32)c2ccc(Br)cc2)cc1 [Compound 8, 4-((E)-(((E)-2-(1H-benzo[d][1,2, 3]triazol-1-yl)-1-(4-bromophenyl)ethylidene) hydrazono)methyl)benzaldehyde] | 193 to 194 | potency against α-glucosidase compared with standard acarbose (in words) [1]: less potent than standard acarbose |
| O=[N+]([O-])c1ccc(/C(Cn2nnc3ccccc32)=N\N=C\c2ccc(Cl)c(Cl)c2)cc1 [Compound 19, 1-((E)-2-(((E)-3,4-dichlorobenzylidene)hydrazono)-2-(4-nitrophenyl)ethyl)-1H-benzo[d] [1,2, 3]triazole] | 194 to 195 | – |
